# Data taken from ChEMBL document CHEMBL1201861, “Genomics of Drug Sensitity in Cancer screening data, Wellcome Trust Sanger Institute”.
# Tests used:
# Test in all cases: cells
# SW780 = format: functional, cell-based; settings: Homo sapiens;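 also: growth inhibition of the cells, read out with a cell viability assay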
# Description: SANGER: Inhibition of human SW780 cell growth in a cell viability assay.
# A2780 = format: functional, cell-based; settings: Homo sapiens;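 also: growth inhibition of A2780 cells, read out with a cell viability assay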
# Description: SANGER: Inhibition of human A2780 cell growth in a cell viability assay.
# H4 = format: functional, cell-based; settings: Homo sapiens
# Description: SANGER: Inhibition of human H4 cell growth in a cell viability assay.
# CWR22R = format: functional, cell-based; settings: Homo sapiens, 22Rv1;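 also: growth inhibition of 22Rv1 cells, read out with a cell viability assay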
# Description: SANGER: Inhibition of human 22RV1 cell growth in a cell viability assay.
# OVCAR-3 = format: functional, cell-based; settings: Homo sapiens;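 also: growth inhibition of human OVCAR-3 cells, determined by a cell viability assay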
# Description: SANGER: Inhibition of human OVCAR-3 cell growth in a cell viability assay.
# CaR-1 = format: functional, cell-based; settings: Homo sapiens;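 also: growth inhibition of human CaR-1 cancer cells, read out with a cell viability assay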
# Description: SANGER: Inhibition of human CaR-1 cell growth in a cell viability assay.
# HT-3 = format: functional, cell-based; settings: Homo sapiens;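 also: growth inhibition measured with a cell viability readout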
# Description: SANGER: Inhibition of human HT-3 cell growth in a cell viability assay.
# NCI-H441 = format: functional, cell-based; settings: Homo sapiens;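 also: growth inhibition of NCI-H441 cells, read out with a cell viability assay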
# Description: SANGER: Inhibition of human NCI-H441 cell growth in a cell viability assay.
# A 172 = format: functional, cell-based; settings: Homo sapiens;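 also: growth inhibition of A172 cells, measured with a cell viability readout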
# Description: SANGER: Inhibition of human A172 cell growth in a cell viability assay.
# UMUC3 = format: functional, cell-based; settings: Homo sapiens;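 also: growth inhibition of human UM-UC-3 cells, read out with a cell viability assay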
# Description: SANGER: Inhibition of human UM-UC-3 cell growth in a cell viability assay.
# TCC-SUP = format: functional, cell-based; settings: Homo sapiens;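 also: growth inhibition of TCC-SUP cells, read out with a cell viability assay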
# Description: SANGER: Inhibition of human TCCSUP cell growth in a cell viability assay.
# LB373-MEL-D = format: functional, cell-based, Homo sapiens; settings: Homo sapiens, LB373-MEL-D;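 also: growth inhibition of the cell line, read out in a cell viability assay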
# Description: SANGER: Inhibition of human LB373-MEL-D cell growth in a cell viability assay.
# COR-L23 = format: functional, cell-based; settings: Homo sapiens;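 also: cell viability assay measuring how strongly compounds suppress growth of COR-L23 cells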
# Description: SANGER: Inhibition of human COR-L23 cell growth in a cell viability assay.
# 23132-87 = format: functional, cell-based; settings: Homo sapiens
# Description: SANGER: Inhibition of human 23132-87 cell growth in a cell viability assay.
# NCI-H292 = format: functional, cell-based; settings: Homo sapiens;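 also: growth inhibition of NCI-H292 cells, read out with a cell viability assay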
# Description: SANGER: Inhibition of human NCI-H292 cell growth in a cell viability assay.
# LU-99A = format: functional, cell-based; settings: Homo sapiens;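 also: growth inhibition of LU-99A cells, read out with a cell viability assay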
# Description: SANGER: Inhibition of human LU-99A cell growth in a cell viability assay.
# CAL-72 = format: functional, cell-based; settings: Homo sapiens;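 also: cell viability assay measuring inhibition of proliferation in the CAL-72 cell line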
# Description: SANGER: Inhibition of human CAL-72 cell growth in a cell viability assay.
# DMS-79 = format: functional, cell-based, Homo sapiens; settings: Homo sapiens, DMS-79;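 also: growth inhibition measured with a cell viability assay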
# Description: SANGER: Inhibition of human DMS-79 cell growth in a cell viability assay.
# SK-MES-1 = format: functional, cell-based; settings: Homo sapiens;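 also: growth inhibition of human SK-MES-1 cells, read out with a cell viability assay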
# Description: SANGER: Inhibition of human SK-MES-1 cell growth in a cell viability assay.
# SW13 = format: functional, cell-based; settings: Homo sapiens;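 also: IC50 is inhibition of SW13 cell growth, read out with a cell viability assay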
# Description: SANGER: Inhibition of human SW13 cell growth in a cell viability assay.
# MIA PaCa-2 = format: functional, cell-based; settings: Homo sapiens;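 also: growth inhibition of MIA PaCa-2 cells, read out with a cell viability assay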
# Description: SANGER: Inhibition of human MIA-PaCa-2 cell growth in a cell viability assay.
# SNU-423 = format: functional, cell-based; settings: Homo sapiens
# Description: SANGER: Inhibition of human SNU-423 cell growth in a cell viability assay.
# SW948 = format: functional, cell-based; settings: Homo sapiens;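 also: growth inhibition of SW948 cells, read out with a cell viability assay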
# Description: SANGER: Inhibition of human SW948 cell growth in a cell viability assay.
# RPMI-2650 = format: functional, cell-based; settings: Homo sapiens
# Description: SANGER: Inhibition of human RPMI-2650 cell growth in a cell viability assay.
# NCI-H2228 = format: functional, cell-based; settings: Homo sapiens;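 also: growth inhibition of human NCI-H2228 cells, read out by a cell viability assay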
# Description: SANGER: Inhibition of human NCI-H2228 cell growth in a cell viability assay.
# SKG-IIIa = format: functional, cell-based; settings: Homo sapiens;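 also: cell growth inhibition, read out with a cell viability assay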
# Description: SANGER: Inhibition of human SKG-IIIa cell growth in a cell viability assay.
# HT-1080 = format: functional, cell-based; settings: Homo sapiens
# Description: SANGER: Inhibition of human HT-1080 cell growth in a cell viability assay.
# NCI-H2347 = format: functional, cell-based; settings: Homo sapiens;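 also: growth inhibition of the cell line, read out with a cell viability assay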
# Description: SANGER: Inhibition of human NCI-H2347 cell growth in a cell viability assay.
# SW837 = format: functional, cell-based; settings: Homo sapiens;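 also: growth inhibition of SW837 cells, determined with a cell viability assay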
# Description: SANGER: Inhibition of human SW837 cell growth in a cell viability assay.
# NCI-H358 = format: functional, cell-based; settings: Homo sapiens;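 also: growth inhibition of NCI-H358 human cells, read out with a cell viability assay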
# Description: SANGER: Inhibition of human NCI-H358 cell growth in a cell viability assay.
# Ca-Ski = format: functional, cell-based; settings: Homo sapiens;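 also: cell viability assay measuring inhibition of Ca-Ski cell growth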
# Description: SANGER: Inhibition of human Ca-Ski cell growth in a cell viability assay.
# CAL-12T = format: functional, cell-based; settings: Homo sapiens;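 also: growth inhibition of human CAL-12T cells, read out with a cell viability assay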
# Description: SANGER: Inhibition of human CAL-12T cell growth in a cell viability assay.
# OAW-28 = format: functional, cell-based; settings: Homo sapiens;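 also: growth inhibition of OAW-28 cells, read out with a cell viability assay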
# Description: SANGER: Inhibition of human OAW-28 cell growth in a cell viability assay.
# 769-P = format: functional, cell-based; settings: Homo sapiens
# Description: SANGER: Inhibition of human 769-P cell growth in a cell viability assay.
# MCF7 = format: functional, cell-based; settings: Homo sapiens;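 also: growth inhibition of human MCF7 cells, read out with a cell viability assay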
# Description: SANGER: Inhibition of human MCF7 cell growth in a cell viability assay.
# HCT-116 = format: functional, cell-based; settings: Homo sapiens
# Description: SANGER: Inhibition of human HCT-116 cell growth in a cell viability assay.
# RT-112 = format: functional, cell-based; settings: Homo sapiens
# Description: SANGER: Inhibition of human RT-112 cell growth in a cell viability assay.
# SW1463 = format: functional, cell-based; settings: Homo sapiens;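 also: growth inhibition of SW1463 cells, determined with a cell viability assay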
# Description: SANGER: Inhibition of human SW1463 cell growth in a cell viability assay.
# VMRC-RCZ = format: functional, cell-based; settings: Homo sapiens;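 also: growth inhibition measured with a cell viability assay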
# Description: SANGER: Inhibition of human VMRC-RCZ cell growth in a cell viability assay.
# A2058 = format: functional, cell-based; settings: Homo sapiens;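 also: reduction of A2058 cell growth, read out with a viability assay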
# Description: SANGER: Inhibition of human A2058 cell growth in a cell viability assay.
# HT55 = format: functional, cell-based; settings: Homo sapiens;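 also: cell viability readout measuring growth inhibition of human HT55 cells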
# Description: SANGER: Inhibition of human HT55 cell growth in a cell viability assay.
# CAL-54 = format: functional, cell-based; settings: Homo sapiens;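 also: growth inhibition of CAL-54 cells, read out by a viability measurement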
# Description: SANGER: Inhibition of human CAL-54 cell growth in a cell viability assay.
# DBTRG-05MG = format: functional, cell-based; settings: Homo sapiens;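 also: cell viability assay measuring growth inhibition of human DBTRG-05MG cells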
# Description: SANGER: Inhibition of human DBTRG-05MG cell growth in a cell viability assay.
# Hs-578T = format: functional, cell-based; settings: Homo sapiens
# Description: SANGER: Inhibition of human Hs-578-T cell growth in a cell viability assay.
# LCLC-97TM1 = format: functional, cell-based; settings: Homo sapiens;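 also: cell viability assay measuring growth inhibition of human LCLC-97TM1 cells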
# Description: SANGER: Inhibition of human LCLC-97TM1 cell growth in a cell viability assay.
# CAL-39 = format: functional, cell-based; settings: Homo sapiens;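 also: cell viability assay measuring growth inhibition of CAL-39 cells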
# Description: SANGER: Inhibition of human CAL-39 cell growth in a cell viability assay.
structure (smiles),measurement,setting,value
NC(=O)Nc1cc(-c2cccc(F)c2)sc1C(=O)N[C@H]1CCCNC1 [AZD-7762],IC50,SW780,1.2 µM
same,IC50,A2780,0.432 µM
same,IC50,H4,0.221 µM
same,IC50,CWR22R,1.81 µM
same,IC50,OVCAR-3,0.274 µM
same,IC50,CaR-1,1.87 µM
same,IC50,HT-3,0.49 µM
same,IC50,NCI-H441,> 2 µM
same,IC50,A 172,0.692 µM
same,IC50,UMUC3,0.903 µM
same,IC50,TCC-SUP,> 2 µM
same,IC50,LB373-MEL-D,> 2 µM
same,IC50,COR-L23,0.403 µM
same,IC50,23132-87,0.683 µM
same,IC50,NCI-H292,0.898 µM
same,IC50,LU-99A,> 2 µM
same,IC50,CAL-72,> 2 µM
same,IC50,DMS-79,> 2 µM
same,IC50,SK-MES-1,0.443 µM
same,IC50,SW13,> 2 µM
same,IC50,MIA PaCa-2,0.375 µM
same,IC50,SNU-423,0.535 µM
same,IC50,SW948,> 2 µM
same,IC50,RPMI-2650,> 2 µM
same,IC50,NCI-H2228,1.29 µM
same,IC50,SKG-IIIa,0.65 µM
same,IC50,HT-1080,0.493 µM
same,IC50,NCI-H2347,1.24 µM
same,IC50,SW837,> 2 µM
same,IC50,NCI-H358,1.43 µM
same,IC50,Ca-Ski,0.388 µM
same,IC50,CAL-12T,0.433 µM
same,IC50,OAW-28,1.85 µM
same,IC50,769-P,0.223 µM
same,IC50,MCF7,> 2 µM
same,IC50,HCT-116,1.42 µM
same,IC50,RT-112,0.499 µM
same,IC50,SW1463,> 2 µM
same,IC50,VMRC-RCZ,0.906 µM
same,IC50,A2058,0.451 µM
same,IC50,HT55,1.61 µM
same,IC50,CAL-54,0.74 µM
same,IC50,DBTRG-05MG,> 2 µM
same,IC50,Hs-578T,0.453 µM
same,IC50,LCLC-97TM1,0.316 µM
same,IC50,CAL-39,> 2 µM
CN(NC(=O)CC(=O)NN(C)C(=S)c1ccccc1)C(=S)c1ccccc1 [ELESCLOMOL],IC50,SW780,0.0303 µM
same,IC50,A2780,0.000594 µM
same,IC50,H4,0.00725 µM
same,IC50,CWR22R,0.0113 µM
same,IC50,OVCAR-3,0.0062 µM
same,IC50,CaR-1,> 0.2 µM
same,IC50,HT-3,> 0.2 µM
same,IC50,NCI-H441,> 0.2 µM
same,IC50,A 172,0.0209 µM
same,IC50,UMUC3,0.00706 µM
same,IC50,TCC-SUP,0.0135 µM
same,IC50,LB373-MEL-D,0.0147 µM
same,IC50,COR-L23,> 0.2 µM
same,IC50,23132-87,0.0249 µM
same,IC50,NCI-H292,0.000886 µM
same,IC50,LU-99A,> 0.2 µM
same,IC50,CAL-72,0.00302 µM
same,IC50,DMS-79,> 0.2 µM
same,IC50,SK-MES-1,> 0.2 µM
same,IC50,SW13,0.00769 µM
same,IC50,MIA PaCa-2,0.0171 µM
same,IC50,SNU-423,0.0152 µM
same,IC50,SW948,> 0.2 µM
same,IC50,RPMI-2650,0.0341 µM
same,IC50,NCI-H2228,0.0309 µM
same,IC50,SKG-IIIa,0.0498 µM
same,IC50,HT-1080,0.00499 µM
same,IC50,NCI-H2347,0.0287 µM
same,IC50,SW837,0.107 µM
same,IC50,NCI-H358,0.0136 µM
same,IC50,Ca-Ski,> 0.2 µM
same,IC50,CAL-12T,0.063 µM
same,IC50,OAW-28,> 0.2 µM
same,IC50,769-P,0.00982 µM
same,IC50,MCF7,0.0314 µM
same,IC50,HCT-116,0.04 µM
same,IC50,RT-112,0.0142 µM
same,IC50,SW1463,> 0.2 µM
same,IC50,VMRC-RCZ,0.108 µM
same,IC50,A2058,0.0139 µM
same,IC50,HT55,> 0.2 µM
same,IC50,CAL-54,> 0.2 µM
same,IC50,DBTRG-05MG,0.00977 µM
same,IC50,Hs-578T,0.0155 µM
same,IC50,LCLC-97TM1,> 0.2 µM
same,IC50,CAL-39,0.0133 µM
CC1=C(/C=C/C(C)=C/C=C/C(C)=C/C(=O)O)C(C)(C)CCC1 [TRETINOIN],IC50,SW780,> 10 µM
same,IC50,A2780,> 10 µM
same,IC50,H4,> 10 µM
same,IC50,CWR22R,> 10 µM
same,IC50,OVCAR-3,> 10 µM
same,IC50,CaR-1,> 10 µM
same,IC50,HT-3,> 10 µM
same,IC50,NCI-H441,> 10 µM
same,IC50,A 172,> 10 µM
same,IC50,UMUC3,> 10 µM
same,IC50,TCC-SUP,> 10 µM
same,IC50,LB373-MEL-D,> 10 µM
same,IC50,COR-L23,> 10 µM
same,IC50,23132-87,> 10 µM
same,IC50,NCI-H292,> 10 µM
same,IC50,LU-99A,> 10 µM
same,IC50,CAL-72,> 10 µM
same,IC50,DMS-79,> 10 µM
same,IC50,SK-MES-1,> 10 µM
same,IC50,SW13,> 10 µM
same,IC50,MIA PaCa-2,> 10 µM
same,IC50,SNU-423,> 10 µM
same,IC50,SW948,> 10 µM
same,IC50,RPMI-2650,> 10 µM
same,IC50,NCI-H2228,> 10 µM
same,IC50,SKG-IIIa,> 10 µM
same,IC50,HT-1080,> 10 µM
same,IC50,NCI-H2347,> 10 µM
same,IC50,SW837,> 10 µM
same,IC50,NCI-H358,> 10 µM
same,IC50,Ca-Ski,> 10 µM
same,IC50,CAL-12T,> 10 µM
same,IC50,OAW-28,> 10 µM
same,IC50,769-P,> 10 µM
same,IC50,MCF7,> 10 µM
same,IC50,HCT-116,> 10 µM
same,IC50,RT-112,> 10 µM
same,IC50,SW1463,> 10 µM
same,IC50,VMRC-RCZ,> 10 µM
same,IC50,A2058,> 10 µM
same,IC50,HT55,> 10 µM
same,IC50,CAL-54,> 10 µM
same,IC50,DBTRG-05MG,> 10 µM
same,IC50,Hs-578T,> 10 µM
same,IC50,LCLC-97TM1,> 10 µM
same,IC50,CAL-39,> 10 µM
NC(=O)c1ccc(N(C(N)=O)c2c(F)cccc2F)nc1-c1ccc(F)cc1F [VX-702],IC50,SW780,> 2 µM
same,IC50,A2780,> 2 µM
same,IC50,H4,> 2 µM
same,IC50,CWR22R,> 2 µM
same,IC50,OVCAR-3,> 2 µM
same,IC50,CaR-1,> 2 µM
same,IC50,HT-3,> 2 µM
same,IC50,NCI-H441,> 2 µM
same,IC50,A 172,> 2 µM
same,IC50,UMUC3,> 2 µM
same,IC50,TCC-SUP,> 2 µM
same,IC50,LB373-MEL-D,> 2 µM
same,IC50,COR-L23,> 2 µM
same,IC50,23132-87,> 2 µM
same,IC50,NCI-H292,> 2 µM
same,IC50,LU-99A,> 2 µM
same,IC50,CAL-72,> 2 µM
same,IC50,DMS-79,> 2 µM
same,IC50,SK-MES-1,> 2 µM
same,IC50,SW13,> 2 µM
same,IC50,MIA PaCa-2,> 2 µM
same,IC50,SNU-423,> 2 µM
same,IC50,SW948,> 2 µM
same,IC50,RPMI-2650,> 2 µM
same,IC50,NCI-H2228,> 2 µM
same,IC50,SKG-IIIa,> 2 µM
same,IC50,HT-1080,> 2 µM
same,IC50,NCI-H2347,> 2 µM
same,IC50,SW837,> 2 µM
same,IC50,NCI-H358,> 2 µM
same,IC50,Ca-Ski,> 2 µM
same,IC50,CAL-12T,> 2 µM
same,IC50,OAW-28,> 2 µM
same,IC50,769-P,> 2 µM
same,IC50,MCF7,> 2 µM
same,IC50,HCT-116,> 2 µM
same,IC50,RT-112,> 2 µM
same,IC50,SW1463,> 2 µM
same,IC50,VMRC-RCZ,> 2 µM
same,IC50,A2058,> 2 µM
same,IC50,HT55,> 2 µM
same,IC50,CAL-54,> 2 µM
same,IC50,DBTRG-05MG,> 2 µM
same,IC50,Hs-578T,> 2 µM
same,IC50,LCLC-97TM1,> 2 µM
same,IC50,CAL-39,> 2 µM
